± gives the standard deviation of the averaged measurements.
Assays:
Test in all cases: level (log10 ratio to DMSO vehicle control); higher = higher biomarker level / cell amount than vehicle control
[1] = compound: CCOC(=O)CC(=O)C(F)(F)C(F)(F)F [Ethyl pentafluoropropionyl acetate] (in DMSO)
Method: (§1)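 BioMAP Diversity Plus panel of 12 human primary cell co-culture systems (3C, 4H, LPS, SAg, BT, BF4T, BE3C, CASM3C, HDF3CGF, KF3CT, MyoF, Mphg). Compounds were added 1 h before stimulation and left for 24 h (MyoF 48 h; BT 72 h for soluble read-outs or 6 d for IgG). Biomarkers were read by ELISA, cytotoxicity by SRB, PBMC viability and proliferation by Alamar Blue. Each well value was divided by the mean of 8 DMSO control wells on the same plate and log10 transformed; duplicate blinded samples were tested at 4 concentrations.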

[2] = compound: CN(C(=O)C(F)(F)C(F)(F)C(F)(F)F)[Si](C)(C)C [N-Methyl-N-trimethylsilylheptafluorobutyramide] (in DMSO)
Method: as §1

[3] = compound: CO[Si](C)(CCC(F)(F)C(F)(F)C(F)(F)C(F)(F)C(F)(F)C(F)(F)F)OC [Dimethoxymethyl((perfluorohexyl)ethyl)silane] (in DMSO)
Method: as §1

Perfluoroundecanoic acid = compound: O=C(O)C(F)(F)C(F)(F)C(F)(F)C(F)(F)C(F)(F)C(F)(F)C(F)(F)C(F)(F)C(F)(F)C(F)(F)F [Perfluoroundecanoic acid] (in DMSO); details: 6700 nM
Method: as §1

[4] = compound: O=C(O)C=C(C(F)(F)F)C(F)(F)F [3,3-Bis(trifluoromethyl)-2-propenoic acid] (in DMSO)
Method: as §1

[5] = compound: O=C(O)CCC(F)(C(F)(F)F)C(F)(F)F [4,4-bis(Trifluoromethyl)-4-fluoropropanoic acid] (in DMSO)
Method: as §1

[6] = compound: OCCC(F)(F)C(F)(F)C(F)(F)C(F)(F)F [4:2 Fluorotelomer alcohol] (in DMSO)
Method: as §1

Test System	level (log10) ([1]; 6700 nM)	level (log10) ([1]; 20000 nM)	level (log10) ([1]; 60000 nM)	level (log10) ([2]; 6700 nM)	level (log10) ([2]; 20000 nM)	level (log10) ([2]; 60000 nM)	level (log10) ([3]; 6700 nM)	level (log10) ([3]; 20000 nM)	level (log10) (Perfluoroundecanoic acid)	level (log10) ([4]; 6700 nM)	level (log10) ([4]; 20000 nM)	level (log10) ([4]; 60000 nM)	level (log10) ([5]; 6700 nM)	level (log10) ([5]; 20000 nM)	level (log10) ([5]; 60000 nM)	level (log10) ([6]; 6700 nM)	level (log10) ([6]; 20000 nM)	level (log10) ([6]; 60000 nM)
HDF3CGF:CD106/VCAM-1	0.007 ± 0.011	-0.0025 ± 0.005	0.006 ± 0.02	-0.0155 ± 0.0092	-0.0165 ± 0.0021	-0.024 ± 0.0028	-0.0175 ± 0.00071	0.001 ± 0.0085	-0.213 ± 0.044	-0.0485 ± 0.021	-0.0795 ± 0.005	-0.17 ± 0.013	-0.0525 ± 0.069	-0.0555 ± 0.12	-0.0835 ± 0.12	-0.023 ± 0.014	0.014 ± 0.035	-0.062 ± 0.057
HDF3CGF:CXCL8/IL-8	-0.005 ± 0.0028	-0.0045 ± 0.011	-0.002 ± 0.021	-0.0015 ± 0.0092	-0.003 ± 0.0057	0.0075 ± 0.0078	-0.0055 ± 0.0035	0.01 ± 0.0028	0.013 ± 0.0028	0.008 ± 0.0014	-0.001	0.022 ± 0.011	-0.0105 ± 0.013	-0.0005 ± 0.0092	0.0065 ± 0.03	-0.007 ± 0.0028	-0.0105 ± 0.0064	-0.002 ± 0.011
HDF3CGF:CXCL9/MIG	0.001 ± 0.0042	-0.013 ± 0.0085	-0.0185 ± 0.005	-0.0105 ± 0.0035	-0.004 ± 0.0057	-0.009 ± 0.018	-0.0005 ± 0.005	-0.005 ± 0.035	-0.0645 ± 0.005	-0.006 ± 0.0028	-0.0075 ± 0.013	-0.0175 ± 0.015	-0.0105 ± 0.039	-0.0215 ± 0.056	-0.0305 ± 0.054	-0.0335 ± 0.037	-0.0065 ± 0.0064	0.01 ± 0.04
HDF3CGF:CXCL10/IP-10	-0.0125 ± 0.015	-0.0105 ± 0.022	-0.046 ± 0.0085	0.0155 ± 0.00071	0.0165 ± 0.013	0.005 ± 0.0028	-0.0105 ± 0.026	-0.0165 ± 0.035	-0.144 ± 0.0092	-0.0175 ± 0.005	-0.0445 ± 0.005	-0.04 ± 0.025	-0.0175 ± 0.084	-0.0415 ± 0.088	-0.0395 ± 0.035	-0.0075 ± 0.025	-0.002 ± 0.023	-0.0095 ± 0.0035
HDF3CGF:CXCL11/I-TAC	-0.0175 ± 0.029	-0.026 ± 0.037	-0.0425 ± 0.021	-0.0135 ± 0.0035	-0.015 ± 0.0099	-0.03	-0.026	-0.035 ± 0.014	-0.062 ± 0.024	-0.038 ± 0.011	-0.0555 ± 0.035	-0.033 ± 0.054	-0.035 ± 0.079	-0.0465 ± 0.074	-0.0745 ± 0.12	-0.039 ± 0.035	0.011 ± 0.0014	-0.0275 ± 0.029
HDF3CGF:Collagen I	-0.0205 ± 0.021	-0.003 ± 0.051	-0.0355 ± 0.0092	-0.058 ± 0.021	-0.0195 ± 0.053	-0.0335 ± 0.039	0.0095 ± 0.077	0.052 ± 0.038	-0.0645 ± 0.03	-0.031 ± 0.0028	-0.041 ± 0.02	-0.03 ± 0.038	-0.0105 ± 0.025	-0.0025 ± 0.028	0.0195 ± 0.026	-0.0205 ± 0.0078	-0.0025 ± 0.0092	0.0475 ± 0.05
HDF3CGF:Collagen III	-0.02 ± 0.047	-0.0505 ± 0.023	-0.0895 ± 0.015	0.0005 ± 0.00071	-0.0175 ± 0.005	-0.0675 ± 0.037	-0.022 ± 0.035	-0.0165 ± 0.07	-0.049 ± 0.05	-0.0905 ± 0.012	-0.0985 ± 0.029	-0.0635 ± 0.069	-0.005 ± 0.04	-0.0495 ± 0.11	-0.0455 ± 0.04	-0.055 ± 0.068	-0.0105 ± 0.0092	0.0335 ± 0.03
HDF3CGF:EGFR	-0.014 ± 0.0057	-0.018 ± 0.017	0.0125 ± 0.037	-0.0055 ± 0.005	-0.005	0.0195 ± 0.0092	-0.0055 ± 0.005	0 ± 0.018	-0.162 ± 0.0014	-0.02 ± 0.041	-0.039 ± 0.05	-0.0145 ± 0.0035	-0.05 ± 0.028	-0.0445 ± 0.04	-0.013 ± 0.033	-0.0285 ± 0.028	-0.001 ± 0.072	0.0275 ± 0.053
HDF3CGF:M-CSF	-0.022 ± 0.017	-0.034 ± 0.037	-0.0135 ± 0.094	-0.0375 ± 0.03	-0.038 ± 0.0085	-0.029 ± 0.055	-0.039 ± 0.0028	-0.02 ± 0.025	-0.0425 ± 0.015	-0.0595 ± 0.0078	-0.072 ± 0.042	-0.051 ± 0.014	-0.0205 ± 0.081	-0.0565 ± 0.13	-0.0735 ± 0.15	-0.027 ± 0.067	-0.035 ± 0.023	-0.004 ± 0.0057
HDF3CGF:MMP-1	0.01 ± 0.028	0.022 ± 0.0071	0.029 ± 0.034	-0.0195 ± 0.016	-0.015 ± 0.014	-0.008 ± 0.045	-0.0165 ± 0.018	-0.005 ± 0.042	-0.004 ± 0.0057	-0.015 ± 0.0014	-0.013 ± 0.017	-0.001 ± 0.0099	0.0015 ± 0.015	-0.0075 ± 0.029	-0.0145 ± 0.054	-0.025 ± 0.0057	-0.0075 ± 0.011	0.0035 ± 0.0035
HDF3CGF:PAI-I	-0.01 ± 0.025	0.004 ± 0.024	0.031 ± 0.062	-0.013 ± 0.0042	0.0015 ± 0.023	0.0385 ± 0.04	-0.0035 ± 0.0092	0.0105 ± 0.015	-0.011 ± 0.0057	-0.0265 ± 0.015	-0.069 ± 0.0099	-0.153 ± 0.025	0.0145 ± 0.011	-0.0095 ± 0.00071	-0.014 ± 0.024	-0.057 ± 0.086	0.008 ± 0.072	-0.0255 ± 0.076
HDF3CGF:Proliferation 72hr	-0.019 ± 0.073	-0.017 ± 0.092	0.036 ± 0.017	0.0075 ± 0.013	0.052 ± 0.042	0.0225 ± 0.011	0.02 ± 0.011	0.007 ± 0.037	-0.557 ± 0.11	-0.0325 ± 0.021	-0.086 ± 0.069	-0.24 ± 0.066	-0.0275 ± 0.035	0.0025 ± 0.028	0.037 ± 0.0014	-0.014 ± 0.045	-0.022 ± 0.0014	0.033 ± 0.027
HDF3CGF:SRB	0.007 ± 0.027	-0.0005 ± 0.032	0.0025 ± 0.021	-0.048 ± 0.0028	-0.0015 ± 0.056	0.0205 ± 0.086	0.0315 ± 0.025	0.0455 ± 0.036	0.0395 ± 0.011	-0.014 ± 0.028	0.0125 ± 0.021	-0.022 ± 0.02	-0.0385 ± 0.07	-0.0245 ± 0.042	0.045 ± 0.041	-0.0105 ± 0.015	-0.022 ± 0.0028	0.011 ± 0.013
HDF3CGF:TIMP-1	-0.0085 ± 0.037	-0.007 ± 0.0071	-0.0305 ± 0.012	-0.036 ± 0.017	-0.038 ± 0.018	-0.031 ± 0.0071	-0.023 ± 0.027	-0.0285 ± 0.022	0.0385 ± 0.043	-0.0935 ± 0.049	-0.125 ± 0.065	-0.0675 ± 0.013	-0.022 ± 0.041	-0.021 ± 0.044	-0.036 ± 0.092	-0.045 ± 0.018	-0.02 ± 0.059	0.0035 ± 0.005
HDF3CGF:TIMP-2	-0.05 ± 0.044	-0.012 ± 0.024	-0.069 ± 0.011	-0.0155 ± 0.036	0.002 ± 0.017	-0.0065 ± 0.049	0.002 ± 0.027	-0.03 ± 0.0014	0.009 ± 0.0042	-0.0175 ± 0.013	-0.0595 ± 0.028	-0.082 ± 0.03	-0.042 ± 0.052	-0.041 ± 0.045	-0.0265 ± 0.013	-0.0305 ± 0.026	-0.01 ± 0.017	-0.044 ± 0.027
